Measured values from patent publication US20130252930A1 (BIOMARIN PHARMACEUTICAL INC., priority 2010, published 2013).
pIC50: −log10 of the molar value. Read-outs that look alike come from different tables or passages of the source.

Legend:
[1] = molecular target: T1, CYP17 (human testicular microsome) (Homo sapiens, UniProt P05093); assay: CYP17 enzymatic assay (IC50) (Biological Example 4); format: biochemical; details: human testicular microsome; read-out: Biological Example No. 4: CYP17 enzymatic assay IC50
T1 construct: using microsomal fraction from human testis (Celsis Cat #S00110) as the enzyme source; tissue Celsis S00110; host or cells: human testis microsomal fraction
T1 sequence (P05093 1-508): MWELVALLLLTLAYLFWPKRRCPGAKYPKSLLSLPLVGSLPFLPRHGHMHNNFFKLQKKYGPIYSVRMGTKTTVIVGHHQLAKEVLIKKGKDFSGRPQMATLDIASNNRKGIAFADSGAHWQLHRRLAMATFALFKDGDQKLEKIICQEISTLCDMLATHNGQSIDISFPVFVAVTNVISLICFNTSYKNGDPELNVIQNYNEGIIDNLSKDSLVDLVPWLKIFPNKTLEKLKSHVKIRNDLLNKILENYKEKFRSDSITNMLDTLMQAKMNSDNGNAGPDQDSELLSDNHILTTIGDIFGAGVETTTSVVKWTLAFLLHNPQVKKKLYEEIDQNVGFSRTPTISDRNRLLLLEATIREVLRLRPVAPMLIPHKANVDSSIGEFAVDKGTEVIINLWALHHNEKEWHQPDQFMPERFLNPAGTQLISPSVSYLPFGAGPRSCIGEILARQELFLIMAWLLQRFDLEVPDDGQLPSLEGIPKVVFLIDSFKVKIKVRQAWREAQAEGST

[2] = molecular target: T2, Cyp21 enzyme (Human HEK 293-Cyp21 stable transfected cells) (Homo sapiens, UniProt P08686); assay: CYP21-HEK293 enzymatic assay (IC50) (Biological Example 11); format: cell-based
T2 construct: expressed in transfected cells
T2 sequence (P08686 1-495): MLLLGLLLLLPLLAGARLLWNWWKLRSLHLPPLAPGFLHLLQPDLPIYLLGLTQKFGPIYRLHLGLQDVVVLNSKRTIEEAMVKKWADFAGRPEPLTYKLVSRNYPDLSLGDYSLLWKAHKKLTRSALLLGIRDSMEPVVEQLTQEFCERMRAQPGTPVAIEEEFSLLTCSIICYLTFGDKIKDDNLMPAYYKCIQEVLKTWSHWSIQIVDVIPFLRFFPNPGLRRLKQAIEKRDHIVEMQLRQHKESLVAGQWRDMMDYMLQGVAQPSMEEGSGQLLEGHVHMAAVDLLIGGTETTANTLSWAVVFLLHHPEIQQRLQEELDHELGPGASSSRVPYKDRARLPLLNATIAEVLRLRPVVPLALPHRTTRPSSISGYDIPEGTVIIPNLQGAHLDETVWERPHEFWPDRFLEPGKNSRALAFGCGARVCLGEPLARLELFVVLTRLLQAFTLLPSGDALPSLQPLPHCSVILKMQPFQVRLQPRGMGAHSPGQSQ
Method: This assay was used to determine compound activity against Cyp21 enzyme. […] The next day, 20 μL medium was carefully removed and 10 μL of 10× pre-made compounds in DMEM+10% FBS+10% methanol was transferred to the wells to final concentrations of 1000, 100, 10, 1, or 0.1 nM. Mock treatment was 1% methanol in growth media and the cells were left at 37° C., 5% CO2 for 5 hr. After the incubation, 10 μL of substrate progesterone (Sigma) was added to the wells to make a final concentration of 10 μM. The cells were incubated the cells at 37° C. for 20 hr. At the end of incubation, 90 μL of conditioned media was removed to measure DOC level by ELISA.
The next day, the plates were washed twice with 250 μl of wash solution (0.015M PBS pH 7.4 containing 0.05% Tween 20). After being washed, the wells were blocked with 250 μL blocking buffer (3% BSA in 0.025M PBS, pH 7.4) at 37° C. for 2 h. The plates were washed again 3 times as before, and then 90 μL of sample /standards (prepared in complete growth media) was added into the appropriate wells followed by 10 μL of antibody solution (1:450 rabbit anti-DOC in 0.6% BSA/PBS). The plates were incubated at room temperature for 2 h on a shaker. The contents of the wells were removed and the plate was washed 4 times. After the final wash, 100 μL of secondary antibody (1:12000 HRP-goat-anti-rabbit IgG conjugate 0.6% BSA/PBS) was added into each well. […] The plate was washed again 4 times and 100 μL of TMB substrate solution was added to each well. The plate was incubated at room temperature for 10 min. 100 μL of stop solution was added to each well and the optical density was read at 450 nm.
The mean absorbance value for each sample was used to determine the corresponding concentration from the standard curve. Data was analyzed with “log(antagonist) vs response variable slope” under “non-linear regression analysis” using Prism5 software.

[3] = molecular target: T1, CYP17 (human testicular microsome); assay: CYP17 enzymatic assay (% inhibition at 1 nM) (Biological Example 12); format: biochemical; details: compound at 1 nM
[4] = Human liver microsome stability assay (Biological Example 8b); details: liver microsomes, pH 7.4
Method: The reaction was started with addition of excess NADPH (5 mg/mL, 15 μL in 0.1 M potassium phosphate buffer, 1.0 mM EDTA, pH 7.4), the total volume is 45 μL (compound final concentration was 1 μM). […] 50 μL of the supernatant was transferred from each well into a 96-well sample plate containing 50 μL of ultra-pure water (Millipore) for LC-MS/MS analysis.

[5] = HEK 293-Cyp21 cells, read-out: Biological Example No. 11: CYP21-HEK293 enzymatic assay IC50
[6] = read-out: Biological Example No. 12: CYP17 enzymatic assay % inhibition at 1 nM
[7] = HEK 293-Cyp21 cells, read-out: CYP21-HEK293 enzymatic assay IC50 (Biological Example No. 11)
[8] = read-out: CYP17 enzymatic assay % inhibition at 1 nM (Biological Example No. 12)
[9] = HEK 293-Cyp21 stable transfected cells, read-out: CYP21-HEK293 enzymatic assay IC50 (Biological Example No. 11)

Question: Which results are given for `C[C@]12CCC3C(CCC4=CC(=O)NCC[C@@]43C)C1=CC=C2c1cncc(C(F)F)c1` (stereo partly drawn) [Compound 390, (5aR,7aS)-8-(5-(difluoromethyl)pyridin-3-yl)-5a,7a-dimethyl-3,4,5,5a,5b,6,7,7a,11,12-decahydrocyclopenta[5,6]naphtho[1,2-d]azepin-2(10bH)-one]?
Answer: pIC50 [1]: > 7.96; pIC50 [2, 5]: < 6.00; inhibition at 0.001 µM [3, 6]: > 50%

Question: With `C[C@]12CCC(=O)CC1C(=O)CC1C2CC[C@]2(C)C(c3cncc(F)c3)=CCC12` (stereo partly drawn) [Compound 418, (10R,13S)-17-(5-fluoropyridin-3-yl)-10,13-dimethyl-4,5,7,8,9,11,12,13,14,15-decahydro-1H-cyclopenta[a]phenanthrene-3,6(2H,10H)-dione] as the molecule, how does the pIC50 [1] read?
Answer: > 7.96

Question: And the pIC50 [2, 5]?
Answer: < 6.00

Question: What about the inhibition at 0.001 µM [3, 6] of the same molecule?
Answer: > 50%

Question: With `C[C@]12CCC3C(C=CC4=C(O)C(=O)CC[C@@]43C)C1=CC=C2c1cccnc1` (stereo partly drawn) [Compound 297, (10R,13S)-4-hydroxy-10,13-dimethyl-17-(pyridin-3-yl)-8,9,10,11,12,13-hexahydro-1H-cyclopenta[a]phenanthren-3(2H)-one] as the molecule, how does the pIC50 [2, 7] read?
Answer: < 7.00

Question: What about the inhibition at 0.001 µM [3, 8] of the same molecule?
Answer: > 50%

Question: And the half-life at 1 μM [4]?
Answer: 1 to 50 min

Question: With `C[C@]12CCC(=O)C(O)=C1C=C[C@@H]1[C@@H]2CC[C@]2(C)C(c3cccnc3)=CC[C@@H]12` [Compound 301, (10R,13S)-4-hydroxy-10,13-dimethyl-17-(pyridin-3-yl)-8,9,10,11,12,13,14,15-octahydro-1H-cyclopenta[a]phenanthren-3(2H)-one] as the molecule, how does the pIC50 [2, 7] read?
Answer: < 6.00

Question: And the inhibition at 0.001 µM [3, 8]?
Answer: > 50%

Question: And the half-life at 1 μM [4]?
Answer: 1 to 50 min

Question: What does the source list for `CC1CC2C3=CC=C(c4cncc(F)c4)[C@@]3(C)CCC2[C@@]2(C)CCNC(=O)C=C12` (stereo partly drawn) [Compound 389, (5aR,7aS)-8-(5-fluoropyridin-3-yl)-5a,7a,12-trimethyl-3,4,5,5a,5b,6,7,7a,11,12-decahydrocyclopenta[5,6]naphtho[1,2-d]azepin-2(10bH)-one]?
Answer: pIC50 [2, 5]: 7.00 to 8.00; inhibition at 0.001 µM [3, 6]: 10 to 50%; half-life at 1 μM [4]: 1 to 50 min

Question: What does the source list for `C=C1C[C@H]2C3=CC=C(c4cccnc4)[C@@]3(C)CC[C@@H]2[C@@]2(C)C=CC(=O)C=C12` [Compound 350, (10R,13S)-10,13-dimethyl-6-methylene-17-(pyridin-3-yl)-6,7,8,9,10,11,12,13-octahydro-3H-cyclopenta[a]phenanthren-3-one]?
Answer: pIC50 [2, 9]: > 8.00; half-life at 1 μM [4]: 1 to 50 min

Question: With `CC1C[C@@H]2[C@H](CC[C@]3(C)C(c4cccnc4)CC[C@@H]23)[C@@]2(C)CCNC(=O)C=C12` (stereo partly drawn) [Compound 395, (5aR,7aS)-5a,7a,12-trimethyl-8-(pyridin-3-yl)-3,4,5,5a,5b,6,7,7a,8,9,10,10a,11,12-tetradecahydrocyclopenta[5,6]naphtho[1,2-d]azepin-2(10bH)-one] as the molecule, how does the pIC50 [2, 9] read?
Answer: > 8.00

Question: And the half-life at 1 μM [4]?
Answer: 1 to 50 min

Question: With `CC1C[C@@H]2[C@H](CC[C@]3(C)C(c4cccnc4)CC[C@@H]23)[C@@]2(C)C=CC(=O)C=C12` (stereo partly drawn) [Compound 421, (10R,13S)-6,10,13-trimethyl-17-(pyridin-3-yl)-6,7,8,9,10,11,12,13,14,15,16,17-dodecahydro-3H-cyclopenta[a]phenanthren-3-one] as the molecule, how does the pIC50 [2, 9] read?
Answer: > 8.00

Question: What about the half-life at 1 μM [4] of the same molecule?
Answer: 1 to 50 min

Question: With `CC1C[C@@H]2[C@H](CC[C@]3(C)C(c4cncc(F)c4)=CC[C@@H]23)[C@@]2(C)C=CC(=O)C=C12` (stereo partly drawn) [Compound 345, (10R,13S)-17-(5-fluoropyridin-3-yl)-6,10,13-trimethyl-6,7,8,9,10,11,12,13,14,15-decahydro-3H-cyclopenta[a]phenanthren-3-one] as the molecule, how does the pIC50 [1] read?
Answer: > 7.96

Question: And the pIC50 [2, 5]?
Answer: 7.00 to 8.00

Question: And the inhibition at 0.001 µM [3, 6]?
Answer: > 50%

Question: With `Cc1cnc(F)c(C2=CCC3C4CCC5=CC(=O)CC[C@]5(C)C4CC[C@]23C)c1` (stereo partly drawn) [Compound 356, (10R,13S)-17-(2-fluoro-5-methylpyridin-3-yl)-10,13-dimethyl-6,7,8,9,10,11,12,13,14,15-decahydro-1H-cyclopenta[a]phenanthren-3(2H)-one] as the molecule, how does the pIC50 [2, 5] read?
Answer: < 6.00

Question: What about the inhibition at 0.001 µM [3, 6] of the same molecule?
Answer: 10 to 50%

Question: With `CCC1CC2C(CC[C@]3(C)C(c4cccnc4)=CCC23)[C@@]2(C)CCC(=O)C=C12` (stereo partly drawn) [Compound 332, (10R,13S)-6-ethyl-10,13-dimethyl-17-(pyridin-3-yl)-6,7,8,9,10,11,12,13,14,15-decahydro-1H-cyclopenta[a]phenanthren-3(2H)-one] as the molecule, how does the pIC50 [2, 5] read?
Answer: 7.00 to 8.00

Question: What about the inhibition at 0.001 µM [3, 6] of the same molecule?
Answer: 10 to 50%

Question: With `CC1CC2C3=CC=C(c4ccc(F)nc4)[C@@]3(C)CCC2[C@@]2(C)CCC(=O)C=C12` (stereo partly drawn) [Compound 326, (10R,13S)-17-(6-fluoropyridin-3-yl)-6,10,13-trimethyl-6,7,8,9,10,11,12,13-octahydro-1H-cyclopenta[a]phenanthren-3(2H)-one] as the molecule, how does the pIC50 [2, 5] read?
Answer: < 6.00

Question: What about the inhibition at 0.001 µM [3, 6] of the same molecule?
Answer: 10 to 50%

Question: With `CCC1CC2C(CC[C@]3(C)C(c4cncc(F)c4)=CCC23)[C@@]2(C)CCC(=O)C=C12` (stereo partly drawn) [Compound 333, (10R,13S)-6-ethyl-17-(5-fluoropyridin-3-yl)-10,13-dimethyl-6,7,8,9,10,11,12,13,14,15-decahydro-1H-cyclopenta[a]phenanthren-3(2H)-one] as the molecule, how does the pIC50 [2, 5] read?
Answer: < 6.00

Question: What about the inhibition at 0.001 µM [3, 6] of the same molecule?
Answer: < 10%

Question: With `C[C@]12CCC(=O)C=C1CCC1C2CC[C@]2(C)C(c3cncc(C(F)F)c3)=CCC12` (stereo partly drawn) [Compound 479, (10R,13S)-17-(5-(difluoromethyl)pyridin-3-yl)-10,13-dimethyl-6,7,8,9,10,11,12,13,14,15-decahydro-1H-cyclopenta[a]phenanthren-3(2H)-one] as the molecule, how does the pIC50 [2, 5] read?
Answer: < 6.00

Question: What about the inhibition at 0.001 µM [3, 6] of the same molecule?
Answer: 10 to 50%

Question: With `C[C@]12CCC(=O)C=C1C(=O)CC1C2CC[C@]2(C)C(c3cncc(F)c3)=CCC12` (stereo partly drawn) [Compound 417, (10R,13S)-17-(5-fluoropyridin-3-yl)-10,13-dimethyl-7,8,9,11,12,13,14,15-octahydro-1H-cyclopenta[a]phenanthrene-3,6(2H,10H)-dione] as the molecule, how does the pIC50 [1] read?
Answer: > 7.96

Question: What about the pIC50 [2, 5] of the same molecule?
Answer: < 6.00

Question: What about the inhibition at 0.001 µM [3, 6] of the same molecule?
Answer: > 50%

Question: With `C[C@]12CC[C@H]3[C@@H](CC(CO)C4=CC(=O)CC[C@@]43C)C1=CC=C2c1cccnc1` (stereo partly drawn) [Compound 340, (10R,13S)-6-(hydroxymethyl)-10,13-dimethyl-17-(pyridin-3-yl)-6,7,8,9,10,11,12,13-octahydro-1H-cyclopenta[a]phenanthren-3(2H)-one] as the molecule, how does the pIC50 [1] read?
Answer: > 7.96

Question: What about the pIC50 [2, 5] of the same molecule?
Answer: < 7.00

Question: What about the inhibition at 0.001 µM [3, 6] of the same molecule?
Answer: > 50%

Question: What does the source list for `Cc1cccc(C)c1C(=O)O[C@@H]1CC[C@@]2(C)C(=CCC3C4=CC=C(c5cccnc5)[C@@]4(C)CCC32)C1` (stereo partly drawn) [Compound 198, (3R,10R,13S)-10,13-dimethyl-17-(pyridin-3-yl)-2,3,4,7,8,9,10,11,12,13-decahydro-1H-cyclopenta[a]phenanthren-3-yl 2,6-dimethylbenzoate]?
Answer: pIC50 [2, 7]: < 6.00; inhibition at 0.001 µM [3, 8]: < 10%

Question: With `CC1C[C@@H]2[C@H](CC[C@]3(C)C(c4cccnc4)CC[C@@H]23)[C@@]2(C)CCC(=O)C=C12` (stereo partly drawn) [Compound 420, (10R,13S)-6,10,13-trimethyl-17-(pyridin-3-yl)-6,7,8,9,10,11,12,13,14,15,16,17-dodecahydro-1H-cyclopenta[a]phenanthren-3(2H)-one] as the molecule, how does the pIC50 [2, 9] read?
Answer: > 8.00

Question: And the half-life at 1 μM [4]?
Answer: 1 to 50 min

Question: With `C[C@]12CCC(=O)C=C1C(n1ccnn1)CC1C2CC[C@]2(C)C(c3cccnc3)=CCC12` (stereo partly drawn) [Compound 335, (10R,13S)-10,13-dimethyl-17-(pyridin-3-yl)-6-(1H-1,2,3-triazol-1-yl)-6,7,8,9,10,11,12,13,14,15-decahydro-1H-cyclopenta[a]phenanthren-3(2H)-one] as the molecule, how does the pIC50 [2, 5] read?
Answer: < 6.00

Question: What about the inhibition at 0.001 µM [3, 6] of the same molecule?
Answer: 10 to 50%

Question: With `CC1(C)C2=CCC3C(CC[C@]4(C)C(c5cccnc5)=CCC34)[C@@]2(C)CC/C1=N\O` (stereo partly drawn) [Compound 363, (10R,13S,E)-4,4,10,13-tetramethyl-17-(pyridin-3-yl)-4,7,8,9,10,11,12,13,14,15-decahydro-1H-cyclopenta[a]phenanthren-3(2H)-one oxime] as the molecule, how does the pIC50 [2, 5] read?
Answer: < 6.00

Question: What about the inhibition at 0.001 µM [3, 6] of the same molecule?
Answer: < 10%
